# Experimental data published in patent US20210386367A1, “DEVICES AND SYSTEMS FOR GASTROINTESTINAL MICROBIOME DETECTION AND MANIPULATION” (Progenity, Inc., priority 2018, published 2021).
# Like-named read-outs stand apart in the source and are kept apart here.
# Experiments:
# S. pyogenes ATCC 49399 = test: Broth microdilution MIC (time-kill study); type: cell-based, Streptococcus pyogenes; conditions: S. pyogenes ATCC 49399
# S. agalactiae ATCC 13813 = test: Broth microdilution MIC (time-kill study); type: cell-based, Streptococcus agalactiae; conditions: S. agalacttae ATCC 13813 (so in the source)
# S. pneumoniae ATCC 49619 = conditions: cited from earlier work
# [1] = system: Streptococcus spp. spontaneous mutants; conditions: S. pneumoniae ATCC 49619; CLSI QC range shown in parentheses; cited from earlier work
compound,measurement,setting,value
"CN[C@H](CC(C)C)C(=O)N[C@H]1C(=O)N[C@@H](CC(N)=O)C(=O)N[C@H]2C(=O)N[C@H]3C(=O)N[C@H](C(=O)N[C@H](C(=O)O)c4cc(O)cc(O)c4-c4cc3ccc4O)[C@H](O)c3ccc(c(Cl)c3)Oc3cc2cc(c3O[C@@H]2O[C@H](CO)[C@@H](O)[C@H](O)[C@H]2O[C@H]2C[C@](C)(N)[C@H](O)[C@H](C)O2)Oc2ccc(cc2Cl)[C@H]1O [vancomycin, Vancomycin]",MIC,"S. pyogenes ATCC 49399; Streptococcus pyogenes, ATCC49399, read-out: MIC",0.25 µg/mL
same,MIC,"S. agalactiae ATCC 13813; Streptococcus agalactiae, ATCC13813, read-out: MIC",0.5 µg/mL
same,CLSI QC range (MIC),S. pneumoniae ATCC 49619,(0.12-0.5) μg/mL
Penicillin,"MIC, CLSI QC range",[1],(0.06-0.25) μg/mL
piperacillin/tazobactam [piperacillin-tazobactam],MIC,S. pyogenes ATCC 49399,0.06 µg/mL
same,MIC,S. agalactiae ATCC 13813,0.06 µg/mL
